These results are taken from patent publication US5298509A, “Octahydronaphthoquinolizines, and methods of making and using thereof” (priority 1992, dated 1994).

The test system of experiment [1] is sham-feeding rat. In words: Sucrose ingestion (sham intake) in the sham-feeding rat. It is filed as in vivo. The conditions noted are these: (+)-SKF 10,047 5 mg/kg i.p.; BMY 14802 4 mg/kg i.p.; haloperidol 0.1 mg/kg i.p.; 20% sucrose, 30-min test, N=6. The text has this:
As a non-limiting example, distinguishing between sigma receptor modulation and dopamine modulation may be accomplished using a D2 distinguishing assay, such as a behavioral assay system which discriminates the effects of dopamine D2 antagonists from sigma modulators or agents. A non-limiting example of a D2 /sigma distinguishing assay system involves quantification of ingestion of sucrose in a sham-feeding rat, where dopamine plays a critical role in the mediation of this behavior. See Schneider, L. H. et al. Eur. J. Pharmacol. 186:61-70 (1990) which is entirely incorporated herein by reference. […] The principal factor which compels the animal to maintain ingestion is the sweet taste of the sucrose solution; the involvement of the ascending mesolimbic dopamine system in this effect appears to be manifested as a modulation of the hedonic potency of the orosensory event (sweet taste). […] Neurosci. Abstr. 16:1028 (1990) which references are incorporated entirely herein by reference.
Differentiation of sigma and dopamine activities are provided by a behavioral assay system which effectively discriminates the effects of dopamine D-2 antagonists from sigma agents. The assay system involves quantification of ingestion of sucrose in the sham-feeding rat.

Experiment [2] concerns sham-feeding rat. In words: Microstructural analysis of licking/ingestive behavior in the sham-feeding rat. It is filed as in vivo. To be noted: SKF 5 mg/kg, BMY 4 mg/kg, HAL 0.1 mg/kg, i.p.; for interlick intervals (in words): range 0-250 msec. The text has this:
Motoric components of the ingestive behavior may be differentiated from the "rewarding", sensory components by the use of microstructural analysis, a computer-controlled device which records the time at which each animal licks, to the nearest fractional millisecond. Analysis of licking and ingestive behavior in bursts is monitored through a fixed time test such that sigma agents may influence ingestive behavior either through the motor output systems or through nigrostriatal dopamine systems. The role for sigma sites in motor output systems include those muscles which are associated with licking, biting, and swallowing.
This consists of the use of a computer-controlled device which records the time at which each animal licks, to the nearest fractional millisecond. This then allows analysis of licking and ingestive behavior in bursts through a 30-minute test.
Using this behavioral assay system, with peripheral administration of the various selective drugs, rats (N=6) received 20% sucrose during a 30-min test, such that there was no effect of the sigma agents (+)-SKF 10,047 (5 mg/kg, i.p.; SKF) or BMY 14802 (4 mg/kg, i.p.; BMY) depending upon the volume of the sucrose solution which was ingested. […] These changes are attributed to a shift in the mean of the distribution histogram of interlick intervals. […] The shift in interlick interval distribution is expected to arise from occupancy of hindbrain sigma sites, possibly in the reticular formation, which are involved in definition of the lick rate in the rat.

Experiment [3] deals with sigma receptor. To be noted: cited from earlier work.
The subject of experiment [4] is sigma versus dopamine D2 receptors. The conditions noted are these: cited from earlier work.
Experiment [5] has as its system sigma receptors. In words: Sigma binding assay, (3H)-haloperidol, bovine cerebellar homogenates. To be noted: bovine cerebellar preparation. As to the method:
(§1) As a non-limiting subexample, a sigma binding assay can use cerebellar tissue extracts to bind sigma receptor selectively by (^3 H)-halopendol with spiperone used to inhibit-binding to D2 receptors. […] These ligands are incubated at 30° C. with tissue (rat liver, rat cerebellum) homogenates for a 45 min period. In these assays, tissue concentrations used a range from 0.1-0.5 mg protein/mL, and radioligand concentrations range from 50 pM-10 μM. […] Filters are dried and counted for (^3 H)-activity in a liquid scintillation counter. The amount of ligand bound to the tissue receptor is measured with the aid of computer analysis of the data, using the LIGAND or an equivalent algorithm.
(§2) Radioligand binding assays were performed on the tricyclic (cis-cis) hexahydrojulolidine (HHJ), the parent tetracyclic (cis,cis) OHNQ (I-1) and 9-methoxy OHNQ (I-4), for binding to D2 and sigma receptors synthesized according to Example 1. The D2 assays were performed on bovine striatal homogenates using 0.50 nM (^3 H)-spiperone in the presence of 250 μM ketanserin (to inhibit association with some 5-HT receptors and spirodecanone sites), with non-specific binding defined using 10 μM sulpiride according to known methods. The sigma binding assay was performed on bovine and rat cerebellar homogenates using 2.0 nM (^3 H)-haloperidol in the presence of 25 nM spiperone (to inhibit association with D2 dopamine receptors); non-specific binding was defined in the presence of 1 μM unlabeled haloperidol. […] Sigma receptor assays on rat brain preparations using (^3 H)-DTG and (^3 H)-Pentazocine as the radiolabels are performed with good results. […]
(§3) Ten to twenty point assays are performed in triplicate using either 4 nM (^3 H)-haloperidol, 4 nM (^3 H)-DTG or 0.4 nM (^3 H)-DTG (New England Nuclear) as radiolabels, on rat liver, rat cerebellar or bovine cerebellar homogenates. […] Radioactivity is counted the following day at 40% efficiency.

Experiment [6] has as its system sigma receptors. Nature of the experiment: Sigma binding assay, (3H)-haloperidol, rat cerebellar homogenates. The conditions noted are these: for binding to sigma sites (in words): rat cerebellar preparation. As to the method:
as §1
(§4) Radioligand binding assays were performed on the tricyclic (cis-cis) hexahydrojulolidine (HHJ), the parent tetracyclic (cis,cis) OHNQ (I-1) and 9-methoxy OHNQ (I-4), for binding to D2 and sigma receptors synthesized according to Example 1. The D2 assays were performed on bovine striatal homogenates using 0.50 nM (^3 H)-spiperone in the presence of 250 μM ketanserin (to inhibit association with some 5-HT receptors and spirodecanone sites), with non-specific binding defined using 10 μM sulpiride according to known methods. The sigma binding assay was performed on bovine and rat cerebellar homogenates using 2.0 nM (^3 H)-haloperidol in the presence of 25 nM spiperone (to inhibit association with D2 dopamine receptors); non-specific binding was defined in the presence of 1 μM unlabeled haloperidol. […] Sigma receptor assays on rat brain preparations using (^3 H)-DTG and (^3 H)-Pentazocine as the radiolabels are performed with good results. […] Additional assays have been performed for D-1 activity (using (^3 H)-SCH23390), and for α-1 and α-2 activity as well as several 5-HT subtypes (5-HT-1-a, 5-HT-3, 5-HT uptake site).
Crude tissue homogenates are prepared by the following general procedure. Frozen tissue is thawed and homogenized in a buffer containing 50 mM Tris-HCI, 120 mM NaCl, 1 mM MgCl2, and 5 mM KCl, pH 8.0. This tissue suspension is sedimented at 100,000×g for a 30 min. period. Following centrifugation, the supernatant is discarded and the resultant pellet is resuspended in the same buffer solution, and respun as previously described.
Ten to twenty point assays are performed in triplicate using either 4 nM (^3 H)-haloperidol, 4 nM (^3 H)-DTG or 0.4 nM (^3 H)-DTG (New England Nuclear) as radiolabels, on rat liver, rat cerebellar or bovine cerebellar homogenates. The concentration of the displacing agent generally ranges between 0.2 nM and 64 μM in a final volume of 2 mL. Non-specific binding is defined by the presence of 1 μM unlabeled haloperidol. Spiperone at a concentration of 25 nM is added in the assays performed with (^3 H)-haloperidol in order to block D2 receptor sites. The buffer system employed is as in the tissue preparation as presented herein. Incubation is carried out for one hour at room temperature after addition of the tissue. Samples are rapidly filtered through Schleicher and Schuell #32 glass filters presoaked with 0.1% polyethyleneimine, on a 24-position cell harvester (Brandel). The filters are washed with ice-cold 10 mM Tris buffer, pH 7.7, and then placed in 2 mL of scintillation fluid. Radioactivity is counted the following day at 40% efficiency.

Experiment [7] has as its system PCP site. To be noted: cited from earlier work.
For experiment [8], the system named is D2 receptor. In words: Dopamine D2 binding assay, (3H)-spiperone, bovine striatal homogenates. As to the method:
as §4

Experiment [9] deals with 5-HT-2 receptor. Nature of the experiment: 5-HT-2 receptor activity assay. It is filed as binding.
Experiment [10] addresses sigma receptors. Nature of the experiment: Sigma receptor binding, rat liver preparations. The method, then: as §1, §2, §3
[11] abbreviates: solubilized rat liver preparations.

In the case of `C=CCN1CCC2(C)c3cc(O)ccc3CC1C2C` (single isomer, unassigned; (+)) [(+)-SKF 10,047], the “effect on volume of sucrose solution ingested (in words)” value in experiment [1] is “no effect”. Also, in [2], the “mean lick cluster size (in words)” value is “not SKF or HAL” and the “interlick intervals (in words)” value was “not SKF or HAL”. The “enantioselectivity for sigma sites (in words)” value in [3] ((+)-NANM versus (-)-NANM) is “more potent than (-)-NANM”.
Regarding `CCCN1CCCC(c2cccc(O)c2)C1` (stereo not drawn) [3-PPP], the “affinity for sigma versus dopaminergic receptors (in words)” value in [4] is recorded as “higher affinity for sigma receptor sites than for dopaminergic receptors”.
Take `COc1ccc2c(c1)C1CCCN3CCCC(C2)C13` (stereo not drawn) [11-methoxy OHNQ]: the “binding to sigma sites (in words)” value in experiment [5] is reported as “weak sigma binding”; in experiment [6], “considerably stronger binding”. In addition, the IC50 in experiment [5] (2.0 nM (3H)-haloperidol, 25 nM spiperone) is 1.5 µM; in experiment [6] (rat cerebellar membranes, 2.0 nM (3H)-haloperidol, 25 nM spiperone) it was 0.3 µM. Further, in experiment [6] (rat cerebellar membranes), the “sigma potency compared with reference compounds (in words)” value was “on the order of that observed for (+)-NaMM, (+)-3-PPP, as well as cis-fused tricyclic octahydrobenzo-(f) quinolines with hydroxyl groups on the aromatic ring”. In experiment [6] (rat cerebellar vs bovine cerebellar receptors), the “sigma binding, rat versus bovine (in words)” value was “bound more specifically and with a higher affinity to rat cerebellar sigma receptors, than to bovine cerebellar receptors”.
In the case of `CCCN1CCC[C@H](c2cccc(O)c2)C1` [(+)-(^3 H)-3-PPP, (+)-(^3 H)-3-(+)-3-(3-hydroxyphenyl) N-(1-propyl)piperidine], the “affinity for sigma receptors (in words)” value in experiment [3] is listed as “labeled with high affinity”.
For `C=CCN1CCC2(C)c3cc(O)ccc3CC1C2C` (stereo not drawn) [(^3 H)-NANM, N-allylnormetazocine], in [3], the “affinity for sigma receptors (in words)” value is “high affinity”. Moreover, the “affinity toward PCP sites (in words)” value in experiment [7] is on record as “low affinity”.
`c1ccc(C2(N3CCCCC3)CCCCC2)cc1` [(^3 H)-PCP, phencyclidine]: the “affinity for sigma receptors (in words)” value in experiment [3] is given as “not labeled”.
Turning to `c1csc(C2(N3CCCCC3)CCCCC2)c1` [(^3 H)-TCP, (^3 H)-1-((2-thienyl)cyclohexyl)piperidine], the “affinity for sigma receptors (in words)” value in experiment [3] is “not labeled”.
In the case of `COc1ccc2c(c1)C1CCCN3CCCC(C2)C13` (stereo not drawn) [(trans,trans) 11-methoxy OHNQ], in experiment [8], the “activity at D-2 receptor sites (in words)” value was “modest but selective activity”. In addition, the “activity at 5-HT-2 receptor sites (in words)” value in experiment [9] is on record as “modest but selective activity”.
On to `Cl.N#Cc1cccnc1N1CCN(CCCCN2C(=O)SC3(CCCC3)C2=O)CC1` [BMY 13980], for which the “affinity for sigma receptors (in words)” value in experiment [3] is “moderate to high affinity”.
`OC(CCCN1CCN(c2ncc(F)cn2)CC1)c1ccc(F)cc1` (stereo not drawn) [BMY 14802]: the “effect on volume of sucrose solution ingested (in words)” value in experiment [1] is listed as “no effect”. In addition, in [2], the “mean lick cluster size (in words)” value is “smaller mean lick cluster size” and the “interlick intervals (in words)” value was “significant decrease of interlick intervals”. Also, the “affinity for sigma receptors (in words)” value in experiment [3] is given as “moderate to high affinity”. In addition, the “selectivity for sigma versus dopamine D2 receptors” value in experiment [4] is 10 to 15 fold. The “affinity toward PCP sites (in words)” value in [7] is recorded as “little or no affinity”.
In the case of `C1CC2CCCN3CCCC(C1)C23` (stereo not drawn) [HHJ, hexahydrojulolidine], the “binding to sigma sites (in words)” value in experiment [5] and in experiment [6] was “did not exhibit binding” throughout.
Regarding `Cl.Fc1ccc2[nH]c3c(c2c1)CN(CCCc1cccnc1)CC3` [WY 47,384], the “affinity for sigma receptors (in words)” value in experiment [3] is “moderate to high affinity”.
As for `O=C1CC2(CCCC2)CC(=O)N1CCCCN1CCN(c2ncccn2)CC1` [buspirone], the “affinity for sigma receptors (in words)” value in experiment [3] was “high affinity”.
As to `C=CCN1CC[C@]23c4c5ccc(O)c4O[C@H]2C(=O)CC[C@@]3(O)[C@H]1C5` [naloxone], the “block of (3H)-NANM binding (in words)” value in experiment [3] (typical opiate receptor antagonists) was “not blocked”.
Take `CCN1CCC[C@H]1CNC(=O)c1c(OC)ccc(Br)c1OC` [remoxipride]: the “affinity for sigma receptors (in words)” value in [3] is listed as “moderate to high affinity”. For the same compound, the “affinity toward PCP sites (in words)” value in experiment [7] is “little or no affinity”.
As for `C[C@@H]1CN(CCCn2c3ccccc3c3ccccc32)C[C@H](C)N1` [rimcazole], the “affinity for sigma receptors (in words)” value in [3] is reported as “moderate to high affinity”. Also, the “selectivity for sigma versus dopamine D2 receptors” value in experiment [4] is 10 to 15 fold. Moreover, the “affinity toward PCP sites (in words)” value in [7] was “little or no affinity”.
In the case of `O=C(CCCN1CCC2(CC1)C(=O)NCN2c1ccccc1)c1ccc(F)cc1` [spiperone], the “affinity for sigma receptors (in words)” value in experiment [3] is given as “not spiperone”.
Consider `O=C1CC2(CCCC2)CC(=O)N1CCCCN1CCN(c2nsc3ccccc23)CC1` [tiospirone], for which the “affinity for sigma receptors (in words)” value in [3] is reported as “moderate to high affinity”.
Regarding `c1ccc2c(c1)CC1CCCN3CCCC2C13` (stereo not drawn) [unsubstituted (trans,trans) OHNQ], in [8], the “activity at D-2 receptor sites (in words)” value was “modest but selective activity”. Moreover, the “activity at 5-HT-2 receptor sites (in words)” value in experiment [9] is listed as “modest but selective activity”. The IC50 in experiment [10] (crude liver homogenates) amounted to 0.157 µM. Moreover, in [10] (setting [11]), the concentration for half-maximal inhibition (IC50) was determined as 0.087 µM and the “affinity to sigma receptors (in words)” value was “high affinity”.

A word on the IC50: it is the concentration needed to halve the response being measured.
